This note sets out measurements from paper PMC7570671, “Synthesis and Biological Evaluation of Novel Benodanil-Heterocyclic Carboxamide Hybrids as a Potential Succinate Dehydrogenase Inhibitors” (Molecules, 2020).

The experiment deals with T1, succinate dehydrogenase (SDH) from mitochondria of R. solani (Rhizoctonia solani, UniProt A0A0K6FYZ3+A0A0K6G4J6+A0A0K6G6J3).
T1 construct: gene sdhB; native complex II in isolated mitochondria, not purified; with Succinate dehydrogenase [ubiquinone] flavoprotein subunit, mitochondrial
In words: succinate:ubiquinone/DCPIP reductase inhibition in isolated mitochondria, absorbance at […] nm. The class given is biochemical.

The term IC50 denotes the midpoint of a concentration-inhibition curve. A high value points to a need for much substance.

T1 sequence (A0A0K6FYZ3 29-278): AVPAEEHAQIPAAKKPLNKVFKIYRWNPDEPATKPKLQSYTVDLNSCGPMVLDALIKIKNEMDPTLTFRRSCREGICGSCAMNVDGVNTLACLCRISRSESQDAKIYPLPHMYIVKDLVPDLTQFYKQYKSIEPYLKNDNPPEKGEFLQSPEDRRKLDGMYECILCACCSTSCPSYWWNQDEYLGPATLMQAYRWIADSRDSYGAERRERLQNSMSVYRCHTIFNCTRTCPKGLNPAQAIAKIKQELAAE
T1 sequence (A0A0K6G4J6 37-154): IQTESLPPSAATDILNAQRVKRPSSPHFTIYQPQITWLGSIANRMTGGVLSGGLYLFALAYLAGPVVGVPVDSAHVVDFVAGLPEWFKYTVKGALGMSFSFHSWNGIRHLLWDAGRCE
T1 sequence (A0A0K6G6J3 32-176): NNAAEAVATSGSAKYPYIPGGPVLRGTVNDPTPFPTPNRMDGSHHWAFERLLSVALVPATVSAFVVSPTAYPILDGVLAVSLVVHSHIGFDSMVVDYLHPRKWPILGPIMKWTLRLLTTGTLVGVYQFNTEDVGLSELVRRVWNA
T1 sequence (A0A0K6G1V0 48-643 partner): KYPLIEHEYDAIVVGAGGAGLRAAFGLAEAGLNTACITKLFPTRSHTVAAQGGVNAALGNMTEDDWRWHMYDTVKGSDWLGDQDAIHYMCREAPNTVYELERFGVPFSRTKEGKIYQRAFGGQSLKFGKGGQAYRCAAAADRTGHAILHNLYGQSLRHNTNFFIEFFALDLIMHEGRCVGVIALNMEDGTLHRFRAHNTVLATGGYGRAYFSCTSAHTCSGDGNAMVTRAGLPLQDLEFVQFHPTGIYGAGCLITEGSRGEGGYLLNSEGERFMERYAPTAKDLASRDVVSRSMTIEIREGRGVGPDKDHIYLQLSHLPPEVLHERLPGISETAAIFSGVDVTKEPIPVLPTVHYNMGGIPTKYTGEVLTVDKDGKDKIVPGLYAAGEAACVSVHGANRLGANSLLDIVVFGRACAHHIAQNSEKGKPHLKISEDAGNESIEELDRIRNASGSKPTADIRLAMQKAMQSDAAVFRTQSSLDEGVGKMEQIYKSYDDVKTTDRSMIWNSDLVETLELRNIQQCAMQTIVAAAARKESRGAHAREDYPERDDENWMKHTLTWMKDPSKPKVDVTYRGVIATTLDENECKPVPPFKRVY

`O=C(Nc1ccccc1)c1ccccc1I` [benodanil] gave an IC50 of 192 µM. With `CC(C)c1cccc(NC(=O)c2ccccc2NC(=O)c2cn(C)nc2C(F)F)c1` [compound 17], it took 127 µM to reach half-maximal inhibition (IC50). Next, `Cn1cc(C(=O)Nc2ccccc2C(=O)Nc2cccc(C(F)(F)F)c2)c(C(F)F)n1` [compound 18]: 130 µM.
